Target: T1, human FAAH (Homo sapiens, UniProt O00519)
T1 construct: host or cells: COS-7 cells, transient transfection; 13,000 g membrane fraction solubilised in 1% Triton X-100
T1 sequence (O00519 1-579): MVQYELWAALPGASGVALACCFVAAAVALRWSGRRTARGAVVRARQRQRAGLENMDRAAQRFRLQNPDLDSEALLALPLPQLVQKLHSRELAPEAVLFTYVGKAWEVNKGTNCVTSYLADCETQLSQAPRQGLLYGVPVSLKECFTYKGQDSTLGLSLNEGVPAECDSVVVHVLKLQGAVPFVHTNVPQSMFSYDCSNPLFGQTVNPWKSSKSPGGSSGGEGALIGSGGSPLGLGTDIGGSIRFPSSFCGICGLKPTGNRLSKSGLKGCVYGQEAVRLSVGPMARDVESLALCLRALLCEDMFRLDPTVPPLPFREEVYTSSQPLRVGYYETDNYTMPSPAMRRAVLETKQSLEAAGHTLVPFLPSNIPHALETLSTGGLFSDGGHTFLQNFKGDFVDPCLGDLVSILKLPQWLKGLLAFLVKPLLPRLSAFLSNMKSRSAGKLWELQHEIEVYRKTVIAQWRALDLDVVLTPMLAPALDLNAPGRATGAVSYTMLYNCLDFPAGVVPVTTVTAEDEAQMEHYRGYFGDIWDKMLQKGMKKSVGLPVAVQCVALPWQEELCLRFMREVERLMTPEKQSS
Assay: Inhibition of human FAAH (fluorescence assay, AMC Arachidonoyl Amide substrate)
Format: biochemical
Settings: solubilized human FAAH from transfected COS-7 cells; 30 minutes preincubation; 20 μM AMC-Arachidonoyl substrate; 4 hours at room temperature
Description: Human FAAH Preparation: COS-7 cells were split the day before, 1:5 into 150 mm×25 mm cell culture dishes (Corning Inc., Cat. No. 430599). Transient transfection took place at 30-40% confluency according to FuGENE 6 Transfection Reagent (Roche, Cat. No. 11814 443 001).
Transfection Procedure: The FuGENE transfection 6 reagent (45 uL) was added to 1410 μL of media (DMEM, serum free without pen/strep) in a 15 mL conical tube and incubated at room temp for 5 minutes, followed by the addition of FAAH plasmid DNA (15 μg) (OriGene Cat. No. TC119221, Genbank Accession No. NM 001441.1, 0.67 ug/uL) and a further incubation of 15 minutes at room temperature. The resulting solution was added into one dish of 30-40% confluent COS-7 cells in a drop-wise manner. The COS-7 cell dish was subsequently incubated for 48 hours. The cells are then harvested.
Harvest procedure: Media was aspirated from the dishes and the cells rinsed with 10 mL PBS. The PBS was removed and 3 mL of PBS added to the dish. The dish was scraped to resuspend the cells, and the subsequent cell suspension collected into a 15 mL conical tube. The cells were pelleted by centrifugation at 1200 rpm for 5 minutes in a bench top centrifuge. PBS was removed and the cell pellet snap frozen in liquid nitrogen and stored at −80° C.
COS-7 Cells—FAAH Purification: • (1) Fractionation: Frozen cell pellets from transient transfections were thawed on ice and resuspended in 12.5 mM Hepes pH 8.0, 100 mM NaCl, 1 mM EDTA (10 mL/0.2 g cell pellet). The pellets were dounce homogenized and then sonicated to produce cell extract. The cell extract was subsequently centrifuged at 1000 g to remove cellular debris. The pellet was discarded and the supernatant centrifuged at 13,000 g for 20 minutes. The pellet contained membrane bound FAAH. The supernatant was discarded and the pellet resolubilized. • (2) Re-solubilization: The fraction of interest, (13,000 g, membrane fraction) was re-suspended in 2.3 mL re-suspension buffer (20 mM Hepes pH 7.8, 10% v/v Glycerol, 1 mM EDTA, 1% Triton X-100) and the sample incubated on ice for 1 hour and then centrifuged to remove any particulate matter. The supernatant containing solubilized human FAAH was aliquoted and snap frozen in liquid nitrogen and stored at −80° C. until use. • (3) Characterization: Protein Concentration determined by Bradford assay. • SDS gel and Western blot to confirm presence of FAAH • FAAH activity assay • Km determination—96-well assay • Linear dependence—96-well assay • Standard compound Ki determination—384-well assay
Human FAAH assay; Experimental Protocol: A 0.1 mg/mL Human FAAH solution was made up in FAAH reaction buffer, and 24 ul pipeted into a 384 well plate. To this was added 1 μL of a 3 fold serially diluted inhibitor from a DMSO stock solution. The FAAH solution and inhibitor were incubated for 30 minutes at room temperature. The FAAH reaction was initiated by the addition of 25 μL of 40 μM AMC Arachidonoyl Amide in FAAH reaction buffer, yielding a final reaction human FAAH preparation concentration of 0.05 mg/ml and AMC-Arachidonoyl substrate concentration of 20 μM, reaction volume 50 μL. The reaction was allowed to proceed for 4 hours at room temperature. The reaction was stopped by the addition of 25 μL 12 μM a-ketoheterocycle (Cayman Chemicals, catalogue # 10435). The microtiter plate was read in the envision plate reader.
The raw fluorescence was plotted on the y axis and the inhibitor concentration on the x axis to give a dose response inhibition curve. The data was fitted to a single site competitive inhibition equation, fixing the Km for the human enzyme to 12 μM and 9 μM respectively.

SMILES | Ki [µM]
BrC1=NO[C@@H](c2ccncc2)C1 [II-1a] | ≥ 1
BrC1=NO[C@H](c2ccncc2)C1 [II-1b] | ≥ 1
BrC1=NO[C@@H](c2cccnc2)C1 [II-2a] | ≥ 1
BrC1=NO[C@H](c2cccnc2)C1 [II-2b] | ≥ 1
BrC1=NO[C@@H](c2ccccn2)C1 [II-3a] | ≥ 1
BrC1=NO[C@H](c2ccccn2)C1 [II-3b] | ≥ 1
BrC1=NO[C@H](c2ccc3ncccc3c2)C1 [II-9b] | ≤ 0.1
BrC1=NO[C@@H](c2ccc3nccnc3c2)C1 [II-11a] | ≤ 0.1
BrC1=NO[C@H](c2ccc3nccnc3c2)C1 [II-11b] | ≤ 0.1
CC(C)(C)OC(=O)Nc1nc2ccc([C@@H]3CC(Br)=NO3)cc2s1 [II-13b] | 0.1 to 1
CC(C)(C)OC(=O)N1CCN(C[C@H]2CC(Br)=NO2)CC1 [II-14a] | ≤ 0.1
CC(C)(C)OC(=O)N1CCC([C@@H]2CC(Br)=NO2)CC1 [II-16b] | ≤ 0.1
Clc1ccc(-c2ncc([C@H]3CC(Br)=NO3)s2)cc1 [II-17a] | ≤ 0.1
C[C@]1(c2cnc(-c3ccccc3)s2)CC(Br)=NO1 [II-18a] | ≤ 0.1
C[C@@]1(c2cnc(-c3ccccc3)s2)CC(Br)=NO1 [II-18b] | ≤ 0.1
C[C@@H]1C(Br)=NO[C@@H]1c1cnc(-c2ccccc2)s1 [II-19b] | ≤ 0.1
C[C@@H]1C(Br)=NO[C@H]1c1cnc(-c2ccccc2)s1 [II-20a] | ≥ 1
c1ccc(-c2ncc([C@H]3CC(Oc4cccnc4)=NO3)s2)cc1 [II-21a] | ≤ 0.1
C[C@@]1(c2cnc(-c3ccccc3)s2)CC(Oc2cccnc2)=NO1 [II-23b] | ≤ 0.1
Cc1nc(-c2ccccc2)sc1[C@@]1(C)CC(Br)=NO1 [II-24a] | 0.1 to 1
Cc1nc(-c2ccccc2)sc1[C@]1(C)CC(Br)=NO1 [II-24b] | 0.1 to 1
BrC1=NO[C@@H](c2ccc(-c3cccnc3)s2)C1 [II-25a] | ≤ 0.1
O=C(O)c1ccc(OC2=NO[C@H](c3ccc(-c4cccnc4)s3)C2)cn1 [II-27b] | ≤ 0.1
CS(=O)(=O)c1ccc(OC2=NO[C@@H](c3cnc(-c4ccccc4)s3)C2)cn1 [II-28a] | ≤ 0.1
C[C@]1(c2cnc(-c3ccccc3)s2)CC(Oc2ccc(S(C)(=O)=O)nc2)=NO1 [II-29a] | ≤ 0.1

Continued, values first:

Ki [µM] | SMILES
0.1 to 1 | BrC1=NO[C@H](c2cnn(-c3ccccc3)c2)C1 [II-4-b]
0.1 to 1 | BrC1=NO[C@@H](c2cnn(-c3ccccc3)c2)C1 [II-4a]
≥ 1 | BrC1=NO[C@@H](c2csc(-c3ccccc3)n2)C1 [II-5a]
≥ 1 | BrC1=NO[C@H](c2csc(-c3ccccc3)n2)C1 [II-5b]
≤ 0.1 | BrC1=NO[C@@H](c2cnc(-c3ccccc3)s2)C1 [II-6a]
≤ 0.1 | BrC1=NO[C@H](c2cnc(-c3ccccc3)s2)C1 [II-6b]
≤ 0.1 | BrC1=NO[C@@H](c2ccc(-c3ccccc3)s2)C1 [II-7a]
≤ 0.1 | BrC1=NO[C@H](c2ccc(-c3ccccc3)s2)C1 [II-7b]
≤ 0.1 | BrC1=NO[C@@H](c2cc(-c3ccccc3)cs2)C1 [II-8a]
≤ 0.1 | BrC1=NO[C@H](c2cc(-c3ccccc3)cs2)C1 [II-8b]
≤ 0.1 | BrC1=NO[C@@H](c2ccc3ncccc3c2)C1 [II-9a]
≤ 0.1 | BrC1=NO[C@@H](c2cnc3ccccc3c2)C1 [II-10a]
≤ 0.1 | BrC1=NO[C@H](c2cnc3ccccc3c2)C1 [II-10b]
0.1 to 1 | CC(C)(C)OC(=O)Nc1nc2ccc([C@H]3CC(Br)=NO3)cc2s1 [II-13a]
≤ 0.1 | CC(C)(C)OC(=O)N1CCN(C[C@@H]2CC(Br)=NO2)CC1 [II-14b]
0.1 to 1 | O=C(OCc1ccccc1)N1CCC([C@H]2CC(Br)=NO2)CC1 [II-15a]
0.1 to 1 | O=C(OCc1ccccc1)N1CCC([C@@H]2CC(Br)=NO2)CC1 [II-15b]

Ki [µM] | SMILES
≤ 0.1 | CC(C)(C)OC(=O)N1CCC([C@H]2CC(Br)=NO2)CC1 [II-16a]
≤ 0.1 | Clc1ccc(-c2ncc([C@@H]3CC(Br)=NO3)s2)cc1 [II-17b]
≤ 0.1 | C[C@H]1C(Br)=NO[C@H]1c1cnc(-c2ccccc2)s1 [II-19a]
≥ 1 | C[C@H]1C(Br)=NO[C@@H]1c1cnc(-c2ccccc2)s1 [II-20b]
≤ 0.1 | c1ccc(-c2ncc([C@@H]3CC(Oc4cccnc4)=NO3)s2)cc1 [II-21b]
≤ 0.1 | C[C@]1(c2cnc(-c3ccccc3)s2)CC(Oc2cncnc2)=NO1 [II-22a]
≤ 0.1 | C[C@@]1(c2cnc(-c3ccccc3)s2)CC(Oc2cncnc2)=NO1 [II-22b]
≤ 0.1 | C[C@]1(c2cnc(-c3ccccc3)s2)CC(Oc2cccnc2)=NO1 [II-23a]
≤ 0.1 | BrC1=NO[C@H](c2ccc(-c3cccnc3)s2)C1 [II-25b]
≤ 0.1 | c1cncc(-c2ccc([C@H]3CC(Oc4cncnc4)=NO3)s2)c1 [II-26a]
≤ 0.1 | c1cncc(-c2ccc([C@@H]3CC(Oc4cncnc4)=NO3)s2)c1 [II-26b]
≤ 0.1 | O=C(O)c1ccc(OC2=NO[C@@H](c3ccc(-c4cccnc4)s3)C2)cn1 [II-27a]
≤ 0.1 | CS(=O)(=O)c1ccc(OC2=NO[C@H](c3cnc(-c4ccccc4)s3)C2)cn1 [II-28b]
≤ 0.1 | C[C@@]1(c2cnc(-c3ccccc3)s2)CC(Oc2ccc(S(C)(=O)=O)nc2)=NO1 [II-29b]
≥ 1 | O[C@H](CNC1=NO[C@@H](c2cc(-c3ccccc3)cs2)C1)c1ccccc1 [II-30a]
≥ 1 | O[C@@H](CNC1=NO[C@@H](c2cc(-c3ccccc3)cs2)C1)c1ccccc1 [II-31a]
≥ 1 | O[C@@H](CNC1=NO[C@H](c2cc(-c3ccccc3)cs2)C1)c1ccccc1 [II-31b]
